Laboratory results: patent publication US11819025B2, “Active compound combinations having insecticidal/acaricidal properties” (Bayer Aktiengesellschaft, priority 2017, dated 2023)
Like-named read-outs stand apart in the source and are kept apart here.

Legend:
Assay type in all cases: in vivo
[1] = system: Tetranychus urticae; assay: Tetranychus urticae - spray test, OP-resistant (Example A, French bean leaf disks); conditions: for pest or weed control at 1.2 g/ha: 1.2 g ai/ha
Text: (§1) E is the efficacy expressed in % mortality of the untreated control using the mixture of A and B at m and n ppm respectively m and n g/ha, • then is
Tetranychus urticae—Spray Test OP-Resistant
Solvent: 78.0 parts by weight acetone • 1.5 parts by weight dimethylformamide
Emulsifier: alkylarylpolyglycol ether […]
French bean (Phaseolus vulgaris) leaf disks infected with all instars of the two spotted spidermite (Tetranychus urticae), are sprayed with a preparation of the active ingredient of the desired concentration.
After the specified period of time, mortality in % is determined. 100% means all spider mites have been killed and 0% means none of the spider mites have been killed. The mortality values determined thus are recalculated using the Colby-formula (see above).

[2] = system: Tetranychus urticae; assay: Tetranychus urticae - spray test, OP-resistant (Example B, infested bean plants); conditions: single active ingredient, mortality
Method: as §1
Tetranychus urticae—Spray Test; OP-Resistant
(§2) Solvent: 7 parts by weight of dimethylformamide
Emulsifier: alkylaryl polyglycol ether
Further test concentrations are prepared by dilution with emulsifier containing water.
After the specified period of time mortality in % is determined. 100% means all the spider mites have been killed and 0% means none of the spider mites have been killed. The mortality values determined thus are recalculated using the Colby-formula (see above).

[3] = system: Meloidogyne incognita; assay: Meloidogyne incognita - test (Example D, soil drench, salad seeds, gall formation); conditions: single active ingredient, reduction of gall formation
Method: The expected efficacy of a given combination of two compounds is calculated as follows (see Colby, S. R., “Calculating Synergistic and antagonistic Responses of Herbicide Combinations”, Weeds 15, pp. 20-22, 1967): • If • X is the efficacy expressed in % mortality of the untreated control for test compound A at a concentration of m ppm respectively m g/ha, • Y is the efficacy expressed in % mortality of the untreated control for test compound B at a concentration of n ppm respectively n g/ha,
as §1
[formula] • If the observed insecticidal efficacy of the combination is higher than the one calculated as “E”, then the combination of the two compounds is more than additive, i.e., there is a synergistic effect.
Meloidogyne incognita—Test
as §2
Emulsifier: 2.5 parts by weight of alkylarylpolyglycolether
To produce a suitable preparation of active compound, 1 part by weight of active compound is mixed with the stated amount of solvent and emulsifier and is diluted with water to the desired concentration. To produce a suitable preparation of a spore suspension the spores are diluted with emulsifier containing water to the desired concentration. In the calculation of the concentration the soil volume has to be included. […] Further test concentrations are prepared by dilution with water.
The compound solution is poured into pots filled with soil (loamy sand). A suspension containing eggs and larvae of the southern root-knot nematode (Meloidogyne incognita) is added, salad seeds are spread on the soil surface and covered with quartz sand. The salad seeds germinate and the seedlings grow. Galls develop on the roots.
After the specified period of time the nematicidal activity is determined on the basis of the percentage of gall formation. 100% means no galls were found; 0% means the number of galls found on the roots of the treated plants was equal to that in untreated control plants. The activity determined thus is recalculated using the Colby-formula (see above).

[4] = system: Meloidogyne incognita; assay: Meloidogyne incognita - test (Example C, sand, salad seeds, gall formation); conditions: single active ingredient, reduction of gall formation
Method: Meloidogvne incognita—Test
Solvent: 125.0 parts by weight of acetone
To produce a suitable preparation of active compound, 1 part by weight of active compound is mixed with the stated amount of solvent, and the concentrate is diluted with water to the desired concentration.
To produce a suitable preparation of a spore suspension the spores are diluted with water to the desired concentration.
Vessels are filled with sand, a solution of the active ingredient, a suspension containing eggs and larvae of the southern root-knot nematode (Meloidogyne incognita) and salad seeds. The salad seeds germinate and the seedlings grow. Galls develop in the roots.
After the specified period of time nematicidal activity is determined on the basis of the percentage of gall formation. 100% means no galls were found and 0% means the number of galls found on the roots of the treated plants was equal to that in untreated control plants.

[5] = Tetranychus urticae, foliar, 144 h, single active ingredient, mortality, read-out: Efficacy in % after 6 days
[6] = 0.5 g ai/ha, single active ingredient, mortality
[7] = Tetranychus urticae, foliar, 144 h, read-out: Efficacy in % after 6 days
[8] = Tetranychus urticae, foliar, 144 h, 0.5 g ai/ha, single active ingredient, mortality, read-out: Efficacy in % after 6 days

## CCCCCCCCCCCCC1=C(OC(C)=O)C(=O)c2ccccc2C1=O [Acequinocyl, acequinocyl]
[1]; 1 g ai/ha, single active ingredient, mortality
  Efficacy in % after 2 days: 0%
[1]; Tetranychus urticae, foliar, 144 h, 1 g ai/ha, single active ingredient, mortality, read-out: Efficacy in % after 6 days
  pest or weed control at 1 g/ha: 0%

## COc1ccc(-c2ccccc2)cc1NNC(=O)OC(C)C [Bifenazate]
[1]; Tetranychus urticae, foliar, 144 h, 0.25 g ai/ha, single active ingredient, mortality, read-out: Efficacy in % after 6 days
  pest or weed control at 0.25 g/ha: 0%
[1]; Tetranychus urticae, foliar, 144 h, 1.8 g ai/ha, single active ingredient, mortality, read-out: Efficacy in % after 6 days
  pest or weed control at 1.8 g/ha: 0%
[2]; 2 ppm
  Efficacy in % after 7 days: 65%

## Cc1cc(F)c(N=C2SCC(=O)N2CC(F)(F)F)cc1[S+]([O-])CC(F)(F)F (centres unmarked) [Cpd of formula (I)]
[1]; [5]
  pest or weed control at 1.2 g/ha: 70%
[2]; 0.2 ppm
  Efficacy in % after 7 days: 0%
[2]; 0.4 ppm
  Efficacy in % after 4 days: 0%
  Efficacy in % after 7 days: 10%
[2]; 0.8 ppm
  Efficacy in % after 4 days: 25%
[3]; 10 ppm
  Efficacy in % after 20 days: 0%
[3]; 20 ppm
  Efficacy in % after 20 days: 15%

## O=C(Nc1ccn(-c2c(F)cccc2F)n1)c1ccccc1C(F)(F)F [Cpd of formula (IIb), N-[1-(2,6-difluorophenyl)-1H-pyrazol-3-yl]-2-(trifluoromethyl)benzamide]
[4]; 1.5 ppm
  Efficacy in % after 14 days: 0%
[3]; 0.4 ppm
  Efficacy in % after 20 days: 0%

## CC(C)c1cc(Oc2ccccc2)cc(C(C)C)c1NC(=S)NC(C)(C)C [Diafenthiuron, diafenthiuron]
[1]; [6]
  Efficacy in % after 2 days: 0%
[1]; [7]
  pest or weed control at 0.5 g/ha: 0%
  pest or weed control at 3 g/ha: 0%
[2]; 3.2 ppm
  Efficacy in % after 7 days: 15%

## CC(C)(C)c1ccc(CCOc2ncnc3ccccc23)cc1 [Fenazaquin, fenazaquin]
[1]; [5]
  pest or weed control at 1.2 g/ha: 0%
[1]; Tetranychus urticae, foliar, 144 h, 2.4 g ai/ha, single active ingredient, mortality, read-out: Efficacy in % after 6 days
  pest or weed control at 2.4 g/ha: 0%

## Cc1nn(C)c(Oc2ccccc2)c1C=NOCc1ccc(C(=O)OC(C)(C)C)cc1 [Fenpyroximate, fenpyroximate]
[1]; [7]
  pest or weed control at 0.2 g/ha: 0%

## COc1ccc(Cl)c(S(=O)(=O)NC(=O)c2cn3cc(C(F)(F)F)cc(Cl)c3n2)c1 [Fluazaindolizine]
[4]; 0.025 ppm
  Efficacy in % after 14 days: 0%
[3]; 0.2 ppm
  Efficacy in % after 20 days: 0%
[3]; 0.4 ppm
  Efficacy in % after 20 days: 40%

## O=S(=O)(CCC(F)=C(F)F)c1ncc(Cl)s1 [Fluensulfone]
[4]; 0.1 ppm
  Efficacy in % after 14 days: 0%
[4]; 0.2 ppm
  Efficacy in % after 14 days: 0%
[3]; 0.4 ppm
  Efficacy in % after 20 days: 0%

## O=C(NCCc1ncc(C(F)(F)F)cc1Cl)c1ccccc1C(F)(F)F [Fluopyram]
[3]; 0.04 ppm
  Efficacy in % after 20 days: 0%
[3]; 0.08 ppm
  Efficacy in % after 20 days: 0%

## CNC(=O)Oc1cc(C)c(SC)c(C)c1 [Methiocarb, 4-methylthio-3,5-xylyl methylcarbamate]
[1]; Tetranychus urticae, foliar, 144 h, 6 g ai/ha, single active ingredient, mortality, read-out: Efficacy in % after 6 days
  pest or weed control at 6 g/ha: 0%
[1]; Tetranychus urticae, foliar, 144 h, 12 g ai/ha, single active ingredient, mortality, read-out: Efficacy in % after 6 days
  pest or weed control at 12 g/ha: 0%

## CC(C)(C)c1ccc(CSc2cnn(C(C)(C)C)c(=O)c2Cl)cc1 [Pyridaben, pyridaben]
[1]; [8]
  pest or weed control at 0.5 g/ha: 0%

## CCc1nn(C)c(C(=O)NCc2ccc(C(C)(C)C)cc2)c1Cl [Tebufenpyrad, tebufenpyrad]
[1]; [6]
  Efficacy in % after 2 days: 0%
[1]; [8]
  pest or weed control at 0.5 g/ha: 0%

## c1ccc(-c2noc(-c3cccs3)n2)cc1 [Tioxazafen]
[3]; 1.25 ppm
  Efficacy in % after 20 days: 0%
